Experimental data reported in ChEMBL document CHEMBL4330075, “Discovery of Novel Quinoline-Chalcone Derivatives as Potent Antitumor Agents with Microtubule Polymerization Inhibitory Activity” (J Med Chem, 2019).
Blank lines part the entries; values can stand above or below the compound they belong to. Active and inactive are the calls of the source. The rule behind the calls is not given here.

Tests used:
K562 [1] = experiment: Antiproliferative activity against human K562 cells after 72 hrs by MTT assay; format: functional, cell-based; conditions: K562, 72 h
Tubulin (Sus scrofa) [2] = molecular target: T1, Tubulin (Sus scrofa) (UniProt P02554+P02550); experiment: Inhibition of [3H]colchicine binding to biotinylated porcine tubulin at 5 uM after 2 hrs by scintillation proximity assay relative to control; format: protein assay
T1 sequence (P02550 whole entry, looked up): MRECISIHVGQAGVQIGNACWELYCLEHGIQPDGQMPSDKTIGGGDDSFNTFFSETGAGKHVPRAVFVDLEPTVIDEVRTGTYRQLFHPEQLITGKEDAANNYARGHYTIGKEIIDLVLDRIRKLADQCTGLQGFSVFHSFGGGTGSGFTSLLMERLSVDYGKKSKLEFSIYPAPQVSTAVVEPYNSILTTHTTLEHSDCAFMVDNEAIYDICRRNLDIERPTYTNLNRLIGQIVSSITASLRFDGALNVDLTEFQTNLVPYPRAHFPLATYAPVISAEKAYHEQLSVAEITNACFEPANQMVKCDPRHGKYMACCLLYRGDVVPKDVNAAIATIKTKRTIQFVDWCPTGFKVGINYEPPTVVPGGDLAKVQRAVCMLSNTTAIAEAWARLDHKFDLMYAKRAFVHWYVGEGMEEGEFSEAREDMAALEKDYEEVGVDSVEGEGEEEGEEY
T1 sequence (P02554 whole entry, looked up): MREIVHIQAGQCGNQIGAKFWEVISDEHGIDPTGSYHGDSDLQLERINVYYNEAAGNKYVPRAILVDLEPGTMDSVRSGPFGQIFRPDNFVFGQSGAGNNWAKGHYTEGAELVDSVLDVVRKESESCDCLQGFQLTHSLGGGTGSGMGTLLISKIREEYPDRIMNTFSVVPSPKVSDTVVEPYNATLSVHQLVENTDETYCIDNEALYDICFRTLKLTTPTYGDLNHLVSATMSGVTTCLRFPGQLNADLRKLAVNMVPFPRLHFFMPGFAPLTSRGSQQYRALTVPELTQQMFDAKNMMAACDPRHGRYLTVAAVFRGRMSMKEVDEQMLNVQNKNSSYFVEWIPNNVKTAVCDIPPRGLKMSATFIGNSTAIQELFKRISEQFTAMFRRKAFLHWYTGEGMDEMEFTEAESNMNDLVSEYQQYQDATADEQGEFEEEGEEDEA

HUVEC [3] = experiment: Inhibition of tube formation in human HUVEC cells at 5 to 20 nM after 6 hrs by tube formation assay; format: functional, cell-based
Tubulin (Sus scrofa) [4] = molecular target: T1, Tubulin (Sus scrofa); experiment: Inhibition of [3H]colchicine binding to biotinylated porcine tubulin at 1 uM after 2 hrs by scintillation proximity assay relative to control; format: protein assay
K562 [5] = experiment: Induction of ROS generation in human K562 cells after 48 hrs by DCF-DA probe-based flow cytometric analysis; format: functional, cell-based
Homo sapiens [6] = experiment: Antitumor activity against […] H22 cells xenografted in ICR mouse assessed as reduction in tumor volume administered intravenously once daily for 21 consecutive days and measured every 2 days; format: functional
Tubulin (Sus scrofa) [7] = molecular target: T1, Tubulin (Sus scrofa); experiment: Inhibition of porcine brain tubulin polymerization measured every 2 mins for 60 mins by spectrophotometric analysis
K562 [8] = experiment: Induction of apoptosis in human K562 assessed as down regulation of Bcl-2 expression after 48 hrs by Western blot analysis; format: functional, cell-based
HUVEC [9] = experiment: Antimigratory activity against human HUVEC cells at 20 nM after 24 hrs by wound healing assay; format: functional, cell-based
K562 [10] = experiment: Cell cycle arrest in human K562 cells assessed as decrease in cdc2 expression after 48 hrs by Western blot analysis; format: functional, cell-based
K562 [11] = experiment: Induction of apoptosis in human K562 assessed as down regulation of Bcl-xl expression after 48 hrs by Western blot analysis; format: functional, cell-based
K562 [12] = experiment: Cell cycle arrest in human K562 cells assessed as decrease in cdc25c expression after 48 hrs by Western blot analysis; format: functional, cell-based
K562 [13] = experiment: Induction of apoptosis in human K562 assessed as nuclear fragmentation at 5 to 20 nM after 48 hrs by Hoechst 33342 staining-based fluorescence microscopic analysis; format: functional, cell-based
MDA-MB-231 [14] = experiment: Antiinvasive activity against human MDA-MB-231 cells after 48 hrs by crystal violet staining-based transwell assay; format: functional, cell-based
K562 [15] = experiment: Induction of apoptosis in human K562 assessed as upregulation of Bax expression after 48 hrs by Western blot analysis; format: functional, cell-based
K562 [16] = experiment: Induction of apoptosis in human K562 assessed as chromatin condensation at 5 to 20 nM after 48 hrs by Hoechst 33342 staining-based fluorescence microscopic analysis; format: functional, cell-based
MDA-MB-231 [17] = experiment: Antimigratory activity against human MDA-MB-231 cells after 48 hrs by transwell assay; format: functional, cell-based
K562 [18] = experiment: Induction of apoptosis in human K562 assessed as upregulation of Bad expression after 48 hrs by Western blot analysis; format: functional, cell-based
Homo sapiens [19] = experiment: Antivascular activity against […] H22 cells xenografted in ICR mouse assessed as decrease in tumor microvessel density at 20 mg/kg, iv qd […] every 2 days for 21 days by CD31/hematoxylin staining-based immunohistochemistry assay; format: functional, organism-based
Homo sapiens [20] = experiment: Antitumor activity against […] H22 cells xenografted in ICR mouse assessed as reduction in tumor weight administered intravenously once daily for 21 consecutive days and measured every 2 days; format: functional
Homo sapiens [21] = experiment: Antitumor activity against […] H22 cells xenografted in ICR mouse assessed as reduction in tumor volume at 20 mg/kg, iv qd for 21 consecutive days and measured every 2 days relative to control; format: functional, organism-based
K562 [22] = experiment: Cell cycle arrest in human K562 cells assessed as decrease in cyclin B1 expression after 48 hrs by Western blot analysis; format: functional, cell-based
K562 [23] = experiment: Induction of ROS generation in human K562 cells up to 20 nM after 48 hrs in presence of N-acetyl-cycteine by DCF-DA probe-based flow cytometric analysis; format: functional, cell-based
Tubulin (Homo sapiens) = Tubulin (Homo sapiens) (UniProt P68371+Q9H4B7+P0DPH7+P68366+Q13509+Q71U36+P04350+Q3ZCM7+P07437+P68363+Q9BQE3+Q6PEY2+Q13885+Q9BVA1+Q9BUF5); experiment: Disruption of microtubule network in human K562 cells at 30 nM after 24 hrs by scanning confocal microscopic analysis
HCT-8 = experiment: Antiproliferative activity against human HCT8 cells after 72 hrs by MTT assay; format: functional, cell-based; conditions: HCT-8, 72 h
HepG2 = experiment: cells; conditions: Homo sapiens, HepG2, 72 h
MDA-MB-231 [24] = experiment: Antiproliferative activity against human MDA-MB-231 cells after 72 hrs by MTT assay; format: functional, cell-based; conditions: MDA-MB-231, 72 h
KB = experiment: Antiproliferative activity against human KB cells after 72 hrs by MTT assay; format: functional, cell-based
[25] = Toxicity in ICR mouse xenografted with […] cells assessed as decrease in body weight at 10 to 20 mg/kg, iv qd administered for 21 days and measured every 2 days; format: organism-based; conditions: in vivo
[26] = Aqueous solubility in pH 7.4 phosphate buffer by HPLC analysis; format: physicochemical
[27] = Antitumor activity against […] H22 cells xenografted in ICR mouse assessed as reduction in tumor weight at 20 mg/kg, iv qd for 21 consecutive days and measured every 2 days relative to control; format: functional; design: scale not given: the % may be the effect or the level left

IC50 (K562 [1]): 153 nM
Compound: COc1ccc(/C=C(\C)C(=O)c2cc(N3CCOCC3)nc3ccccc23)cc1O

IC50 (K562 [1]): > 1000 nM
Compound: C/C(=C\c1cccc2[nH]ccc12)C(=O)c1cc(C)nc2ccccc12

Compound: COc1ccc(/C=C(\C)C(=O)c2cc(C)nc3ccccc23)cc1O
inhibition (Tubulin (Sus scrofa) [2]): 92.7%
inhibition (HUVEC [3]): Active
inhibition (Tubulin (Sus scrofa) [4]): 79.4%
Activity (K562 [5]): Dose-dependent effect
Activity (Homo sapiens [6]): Dose-dependent effect
inhibition (Tubulin (Sus scrofa) [7]): Dose-dependent effect
Activity (K562 [8]): Dose-dependent effect
Activity (HUVEC [9]): Active
Activity (K562 [10]): Dose-dependent effect
Activity (K562 [11]): Dose-dependent effect
Activity (K562 [12]): Dose-dependent effect
Activity (K562 [13]): Active
Activity (MDA-MB-231 [14]): Dose-dependent effect
Activity (K562 [15]): Dose-dependent effect
Activity (K562 [16]): Active
Activity (MDA-MB-231 [17]): Dose-dependent effect
Activity (K562 [18]): Dose-dependent effect
Activity (Homo sapiens [19]): Active
Activity (Homo sapiens [20]): Dose-dependent effect
Activity (Homo sapiens [21]): Active
Activity (K562 [22]): Dose-dependent effect
Activity (K562 [23]): inactive
Activity (Tubulin (Homo sapiens)): Active

IC50 (HCT-8): 242 nM
IC50 (K562 [1]): 50 nM
IC50 (HepG2): 165 nM
IC50 (MDA-MB-231 [24]): 209 nM
IC50 (KB): 231 nM
Compound: COc1ccc(/C=C(\C)C(=O)c2cc(CO)nc3ccccc23)cc1O

IC50 (K562 [1]): 315 nM
Compound: COc1ccc(/C=C(\C)C(=O)c2cc(N3CCCC3)nc3ccccc23)cc1O

IC50 (K562 [1]): 1060 nM
Compound: COc1ccc(/C=C(\C)C(=O)c2cc(C)nc3ccccc23)cc1OC

IC50 (K562 [1]): 330 nM
Compound: COc1ccc(CNc2cc(C(=O)/C(C)=C/c3ccc(OC)c(O)c3)c3ccccc3n2)cc1

IC50 (HCT-8): 135 nM
IC50 (K562 [1]): 74 nM
IC50 (HepG2): 111 nM
IC50 (MDA-MB-231 [24]): 220 nM
IC50 (KB): 124 nM
Compound: C/C(=C\c1ccc2c(ccn2C)c1)C(=O)c1cc(C)nc2ccccc12

Compound: COc1ccc(/C=C(\C)C(=O)c2cc(C)nc3ccccc23)cc1O.Cl
Activity [25]: Non-Toxic
solubility [26]: > 1000 µg/mL
Activity [27]: 68.9%

IC50 (HCT-8): 52 nM
IC50 (K562 [1]): 49 nM
IC50 (HepG2): 57 nM
IC50 (MDA-MB-231 [24]): 48 nM
IC50 (KB): 43 nM
Compound: COc1ccc(/C=C(\C)C(=O)c2cc(N(C)C)nc3ccccc23)cc1O

IC50 (K562 [1]): > 1000 nM
Compound: COc1ccc2c(/C=C(\C)C(=O)c3cc(C)nc4ccccc34)c[nH]c2c1

IC50 (HCT-8): 227 nM
IC50 (K562 [1]): 53 nM
IC50 (HepG2): 187 nM
IC50 (MDA-MB-231 [24]): 183 nM
IC50 (KB): 237 nM
Compound: COc1ccc(/C=C(\C)C(=O)c2cc(Cl)nc3ccccc23)cc1O

IC50 (HCT-8): 421 nM
IC50 (K562 [1]): 346 nM
IC50 (HepG2): 226 nM
IC50 (MDA-MB-231 [24]): 425 nM
IC50 (KB): 429 nM
Compound: C/C(=C\c1ccc2[nH]ccc2c1)C(=O)c1cc(C)nc2ccccc12

IC50 (K562 [1]): 69 nM
Compound: COc1ccc(/C=C(\C)C(=O)c2cc(C)nc3ccccc23)cc1F

IC50 (K562 [1]): > 1000 nM
Compound: COc1ccc2c(/C=C/C(=O)c3cc(C)nc4ccccc34)c[nH]c2c1

IC50 (K562 [1]): 40 nM
Compound: CCNc1cc(C(=O)/C(C)=C/c2ccc(OC)c(O)c2)c2ccccc2n1

IC50 (K562 [1]): 108 nM
Compound: COc1ccc(/C=C(\C)C(=O)c2cc(C)nc3ccccc23)cc1
